The values below come from patent US20090286884A1, “Hops Beta-Acid Anti-Diabetic Composition” (priority 2004, published 2009).

For the test, the system named is normal human muscle myoblasts (HSMM). The test can be described thus: 3H-deoxyglucose uptake into skeletal muscle cells. It counts as cell-based. The note with it: after 24 hrs incubation in the presence of various hops extracts. The protocol: All skeletal muscle cell strains used are skeletal muscle myoblast cells (purchased from Clonetics) with negative for HIV-I, hepatitis-B & C, mycoplasma, bacteria, yeast and fungi. This Skeletal Muscle Myoblast Cell System contains normal human muscle myoblasts (HSMM). The cell and media System can quickly generate HSMM cultures for the study of cellular development and differentiation, insulin uptake or resistance, or tissue repair. The Skeletal muscle cells were cultured on Cytostar 96-well cultured plate. Cells were labeled with 3H-deoxyglucose (50 μCi/ml, 4 μM) in the presence of 8 mM glucose. Radioactivity was counted on a Microbeta scintillation counter. In beta-acid treated cells (mixture of 65:25:10 of co-Lupulone: lupulone: ad-lupulone, Beta Tec, Washington, D.C.), kinetics of labeled deoxyglucose uptake was directly measured without washing. In order to avoid color quenching of quercetin treated cells, cells were washed with Hanks buffer and then the radioactivity was measured at end-point (18 hr). Error bars show SD (n=3).

On to `COc1cc(O)c(CC=C(C)C)c(O)c1C(=O)/C=C/c1ccc(O)cc1` [xanthohumol], for which the “glucose uptake into muscle skeletal cells, enhancing effect” value is “no enhancing effect”.
